Laboratory results: US10080756B2, “Combination methods for treating cancers” (Gilead Sciences, Inc., priority 2014, dated 2018)

Assays:
SU-DHL-6 = assay: Cell Titer Glo viability assay, SU-DHL-6; format: cell-based; conditions: Homo sapiens; SU-DHL-6, DLBCL; single agent; 72 hours; read-out: Inhibition of Viability, EC50
Method: (§1) All procedures were performed at Gilead Sciences, Inc. in Branford, The compound of formula (I), cyclophosphamide, doxorubicin and vincristine sulfate were dissolved in DMSO to prepare stock solutions that were serially diluted three-fold in DMSO in a 96 well plate format at 1000× so the final starting assay concentrations tested would be 10 μM, 200 μM, 10 μM, and 1 μM respectively, for each compound. Compound plates were diluted 1:100 in RPMI without serum or additives creating a 10× stock. Cells were seeded into a 96-well plate at 10,000-20,000 cells per well in 100 μl of growth media appropriate to the cell line supplemented with 100 U/L penicillin-streptomycin. OCI-Ly3, OCI-Ly4 and OCI-Ly7 were grown in Iscove's+20% FBS, OCI-Ly19 was grown in alphaMEM+20% FBS, and all other cell lines were grown in RPMI+10% FBS. To each well, 11 μl of 10× compound was added in a final concentration of 0.1% DMSO and cells were incubated at 37° C. in 5% CO2 for 72 hours. Cell viability was assessed with Cell Titer Glo (Promega, Madison, Wis.) following the manufacturer's protocol on an Envision plate reader (Perkin Elmer, Waltham, Mass.). EC50 values were determined using a four parameter variable slope model with GraphPad Prism 6.0 software. All EC50 values represent mean values of from duplicate dose response curves.

SU-DHL-10 [1] = assay: Cell Titer Glo viability assay, SU-DHL-10; format: cell-based; conditions: Homo sapiens, SU-DHL10; SU-DHL-10, DLBCL; single agent; 72 hours; read-out: Inhibition of Viability, EC50
Method: as §1

OCI-LY7 = assay: Cell Titer Glo viability assay, OCI-LY7; format: cell-based; conditions: Homo sapiens; OCI-LY7, DLBCL; single agent; 72 hours; read-out: Inhibition of Viability, EC50
Method: as §1

OCI-LY19 = assay: Cell Titer Glo viability assay, OCI-LY19; format: cell-based; conditions: Homo sapiens; OCI-LY19, DLBCL; single agent; 72 hours; read-out: Inhibition of Viability, EC50
Method: as §1

WSU-NHL = assay: Cell Titer Glo viability assay, WSU-NHL; format: cell-based; conditions: Homo sapiens, FL, single agent, 72 hours, read-out: Inhibition of Viability, EC50
Method: as §1

SU-DHL-10 [2] = assay: SU-DHL-10 mouse xenograft model of diffuse large B cell lymphoma, tumor growth; format: in vivo; conditions: for complete or partial regressions (in words): single agents; for partial tumor regressions: treatment alone
Method: Entospletinib was evaluated for efficacy in vivo as a single agent and in combination with vincristine in a subcutaneous cell line tumor xenograft model in male SCID beige mice using the human diffuse large B-cell lymphoma cell line, SU-DHL-10 in a 2×2 dose level matrix of Entospletinib and vincristine.
Formulation—Entospletinib was formulated in a complete vehicle of 0.5% HPMC-0.2% Tween 80 (pH 3.5 50 mM acetate buffer, and the lower dose was prepared by direct dilution). The high dose formulation was mixed using a stir bar (and Polytroned briefly as needed to break up clumps of compound) to form a yellow solution (pH=1.8), which became an opaque suspension within 30 minutes. The dosing suspension was prepared fresh daily and stored at 4° C. protected from light between treatments.
The formulation for the highest dose group of vincristine was prepared by diluting the stock solution with 0.9% sterile saline, and the lower dose was prepared by direct dilution of that stock with saline. […] The dosing formulations were prepared just prior to each treatment.
Male Harlan SCID beige mice (C.B-17/IcrHsd-Prkdc^scidLyst^bg-J) were used in this study. They were 6-7 weeks old on Day 1 of the experiment and were fed irradiated Harlan 2918.15 Rodent Diet and water ad libitum. Animals were housed in static cages with Bed-O'Cobs™ bedding (The Andersons Lab Bedding Products) inside Biobubble® Clean Rooms that provide H.E.P.A filtered air into the bubble environment at 100 complete air changes per hour. All treatments, body weight determinations, and tumor measurements were carried out in the bubble environment. The environment was controlled to a temperature range of 70°±2° F. and a humidity range of 30-70%.
SU-DHL-10 cells were obtained from Leibniz Institute DSMZ-German Collection of Microorganisms and Cell Cultures (DSMZ). They were grown in RPMI 1640 medium which was modified with 1% 100 mM Na pyruvate, 1% 1M HEPES buffer, 1% of a 45% glucose solution and supplemented with 10% non-heat-inactivated Fetal Bovine Serum (FBS) and 1% 100× Penicillin/Streptomycin/L-Glutamine (PSG). The growth environment was maintained in an incubator with a 5% CO2 atmosphere at 37° C. The cells were centrifuged at 200 rcf for 8 minutes at 8° C., the supernatant aspirated, and the pellet re-suspended in cold Dulbecco's Phosphate Buffered Saline (DPBS) by pipetting. An aliquot of the homogeneous cell suspension was diluted with a trypan blue solution and counted using a Luna automated cell counter. The pre-implantation cell viability was 91%. The cell suspension was centrifuged at 200 rcf for 8 minutes at 8° C. The supernatant was aspirated and the cell pellet was re-suspended in cold 50% serum-free medium:50% Matrigel® Matrix (Corning) to generate a final concentration of 2.5E+07 cells/ml. The cell suspension was maintained on wet ice during implantation. Following implantation, an aliquot of the remaining cells was diluted with a trypan blue solution and counted to determine the post-implantation cell viability (91%). Test animals were implanted subcutaneously, high in the axilla (just under the fore limb) on Day 0 with 5.0×10^6 cells in 0.2 ml of 50% serum-free medium: 50% Matrigel® Matrix using a 27-gauge needle and syringe.
All mice were sorted into study groups based on tumor burden (estimated from caliper measurements). Efficacy was evaluated by tumor volume/weight monitored during and after treatment. Tumor burden (mg) was measured three times weekly by using caliper measurements and converting to tumor mass by the formula for the volume of a prolate ellipsoid assuming unit density as: Tumor burden (mg)=(L×W^2)/2 • where L and W are the respective orthogonal tumor length and width measurements (mm). The criteria used for a successful distribution in this study was a mean tumor burden for all groups within 10% of the overall mean tumor burden for the study population Treatment began on Day 16 at an overall mean tumor burden of 197 mm^3. […]

[3] = Plasma levels in SU-DHL-10 xenograft study; format: in vivo, mouse
Method: On the 16th day post-tumor implantation, animals with established tumors (n=9 animals per group) were treated for 3 days by oral gavage with either vehicle or Entospletinib at 75 mg/kg or 25 mg/kg twice daily (BID). […] This dose level is designated 75/50 mg/kg.
Efficacy was evaluated by tumor volume measurements. Plasma levels of Entospletinib and vincristine were evaluated on the third day of dosing Entospletinib (Day 19) and the last day of dosing (Day 32). Tolerability was evaluated by daily observations, body weight (3 times per week) and circulating blood cell counts at the end of the study.

EC50 (SU-DHL-6) [nM]	EC50 (SU-DHL-10 [1]) [nM]	EC50 (OCI-LY7) [nM]	EC50 (OCI-LY19) [nM]	Compound	EC50 (WSU-NHL) [nM]	Day 31 % Tumor Growth Inhibition (SU-DHL-10 [2]; Vehicle for ENTO + VCR 0.15 mg/kg Q7Dx3 (group 5)) [%]	Day 31 % Tumor Growth Inhibition (SU-DHL-10 [2]; Vehicle for ENTO + VCR 0.5 mg/kg Q7Dx3 (group 4)) [%]	complete or partial regressions (in words) (SU-DHL-10 [2])	partial tumor regressions (SU-DHL-10 [2]) [%]	inhibition of tumor growth (in words) (SU-DHL-10 [2]; vincristine at both 0.15 and 0.5 mg/kg)	Day 31 % Tumor Growth Inhibition (SU-DHL-10 [2]; ENTO 25 mg/kg BID + Vehicle for VCR Q7Dx3 (group 3)) [%]	Day 31 % Tumor Growth Inhibition (SU-DHL-10 [2]; ENTO 75/50 mg/kg BID + Vehicle for VCR Q7Dx3 (group 2)) [%]	inhibition of tumor growth (in words) (SU-DHL-10 [2]; Entospletinib dosed alone at 25 or 75/50 mg/kg)	plasma concentrations on the third day of dosing ([3]; 75 mg/kg BID)	plasma concentrations at the end of study at Cmin (trough) ([3]; 25 and 50 mg/kg BID, respectively, compared with mouse whole blood values for inhibition of SYK)
12	45	4.6	1.2	CC[C@]1(O)C[C@H]2CN(CCc3c([nH]c4ccccc34)[C@@](C(=O)OC)(c3cc4c(cc3OC)N(C=O)[C@H]3[C@@](O)(C(=O)OC)[C@H](OC(C)=O)[C@]5(CC)C=CCN6CC[C@]43[C@@H]65)C2)C1 [Vincristine, vincristine]	39	42	85	no complete or partial regressions	0	significant inhibition of tumor growth					
> 3000	> 3000	> 3000	> 3000	c1cn2cc(-c3ccc4cn[nH]c4c3)nc(Nc3ccc(N4CCOCC4)cc3)c2n1 [Compound of Formula I, 6-(1H-indazol-6-yl)-N-(4-morpholinophenyl)imidazo[1,2-a]pyrazin-8-amine]	> 3000			no complete or partial regressions	0		20	39	inhibited tumor growth but to a lesser degree than that seen with vincristine	higher than planned plasma concentrations	exceed the in vitro pervanadate-stimulated mouse whole blood EC50 and EC50 values for inhibition of SYK
